Values after ≈ are worked out from the molar mass of the structure shown.
Columns and labels:
[1] = test system: A549 human lung cancer cells; test: cell viability assay (MTT); format: cell-based; details: 24 h; for viability at 1 µg/mL: read-out: Validity (%) for sample concentrations (µg/mL) 1; for viability at 10 µg/mL: read-out: Validity (%) for sample concentrations (µg/mL) 10; for viability at 31.25 µg/mL: read-out: Validity (%) for sample concentrations (µg/mL) 31.25; for viability at 62.5 µg/mL: 62.50 µg/mL, read-out: Validity (%) for sample concentrations (µg/mL) 62.50; for viability at 125 µg/mL: read-out: Validity (%) for sample concentrations (µg/mL) 125; for viability at 250 µg/mL: read-out: Validity (%) for sample concentrations (µg/mL) 250; for viability at 500 µg/mL: read-out: Validity (%) for sample concentrations (µg/mL) 500; for viability at 1000 µg/mL: read-out: Validity (%) for sample concentrations (µg/mL) 1000
Description: WI-38 normal lung fibroblast cells, A549 lung cancer cells, and MDA-MB-231 breast cancer cells were obtained from VACSERA—Cell Culture Unit, Cairo, Egypt. The cell lines were originally obtained from the American Tissue Culture Collection (ATCC). WI-38, A549, and MDA-MB-231 cell lines were cultured in RPMI-1640 medium supplemented with 10% inactivate fetal bovine serum (FBS) and 1% penicillin/streptomycin were bought (Gibco, Invitrogen, CA). WI-38, A549, and MDA-MB-231 cells were seeded into 96-well plates (at a density of 5000 cells/well). […] Cell viability was then assessed using the MTT assay (Sigma Aldrich, St. Louis, MO, USA), and the absorbance was read at 570 nm using an ELISA microplate reader (Molecular Devices, Downingtown, PA, USA).

[2] = test system: WI-38 human normal fibroblast cells; test: cell viability assay (MTT); format: cell-based; details: 24 h; for viability at 31.25 µg/mL: read-out: Validity (%) for sample concentrations (µg/mL) 31.25; for viability at 62.5 µg/mL: 62.50 µg/mL, read-out: Validity (%) for sample concentrations (µg/mL) 62.50; for viability at 125 µg/mL: read-out: Validity (%) for sample concentrations (µg/mL) 125; for viability at 250 µg/mL: read-out: Validity (%) for sample concentrations (µg/mL) 250; for viability at 500 µg/mL: read-out: Validity (%) for sample concentrations (µg/mL) 500
Description: (§1) WI-38 normal lung fibroblast cells, A549 lung cancer cells, and MDA-MB-231 breast cancer cells were obtained from VACSERA—Cell Culture Unit, Cairo, Egypt. The cell lines were originally obtained from the American Tissue Culture Collection (ATCC). WI-38, A549, and MDA-MB-231 cell lines were cultured in RPMI-1640 medium supplemented with 10% inactivate fetal bovine serum (FBS) and 1% penicillin/streptomycin were bought (Gibco, Invitrogen, CA). WI-38, A549, and MDA-MB-231 cells were seeded into 96-well plates (at a density of 5000 cells/well). On the following day, cells were treated with different concentrations (0, 1, 10, 31.25, 62.5, 125, 250, 500 µg/mL) of 16 fluorene derivatives in fresh medium and incubated for another 24 h. Cell viability was then assessed using the MTT assay (Sigma Aldrich, St. Louis, MO, USA), and the absorbance was read at 570 nm using an ELISA microplate reader (Molecular Devices, Downingtown, PA, USA).

[3] = test system: MDA-MB-231 human breast cancer cells; test: cell viability assay (MTT); format: cell-based; details: 24 h; for viability at 1 µg/mL: read-out: Validity (%) for sample concentrations (µg/mL) 1; for viability at 10 µg/mL: read-out: Validity (%) for sample concentrations (µg/mL) 10; for viability at 31.25 µg/mL: read-out: Validity (%) for sample concentrations (µg/mL) 31.25; for viability at 62.5 µg/mL: read-out: Validity (%) for sample concentrations (µg/mL) 62.5; for viability at 125 µg/mL: read-out: Validity (%) for sample concentrations (µg/mL) 125; for viability at 250 µg/mL: read-out: Validity (%) for sample concentrations (µg/mL) 250; for viability at 500 µg/mL: read-out: Validity (%) for sample concentrations (µg/mL) 500
Description: as §1

Compound | IC50 [1] [µg/mL] | IC50 [2] [µg/mL] | IC50 [3] [µg/mL] | viability at 1 µg/mL [1] [%] | viability at 10 µg/mL [1] [%] | viability at 31.25 µg/mL [1] [%] | viability at 62.5 µg/mL [1] [%] | viability at 125 µg/mL [1] [%] | viability at 250 µg/mL [1] [%] | viability at 500 µg/mL [1] [%] | viability at 1000 µg/mL [1] [%] | viability at 31.25 µg/mL [2] [%] | viability at 62.5 µg/mL [2] [%] | viability at 125 µg/mL [2] [%] | viability at 250 µg/mL [2] [%] | viability at 500 µg/mL [2] [%] | viability at 1 µg/mL [3] [%] | viability at 10 µg/mL [3] [%] | viability at 31.25 µg/mL [3] [%] | viability at 62.5 µg/mL [3] [%] | other results
CC(=O)O[C@H]1C(=O)[C@@]2(C)[C@H]([C@H](OC(=O)c3ccccc3)[C@]3(O)C[C@H](OC(=O)[C@H](O)[C@@H](NC(=O)c4ccccc4)c4ccccc4)C(C)=C1C3(C)C)[C@]1(OC(C)=O)CO[C@@H]1C[C@@H]2O [Taxol, reference compound] | 2.3 (≈ 2.69 µM) | 41 (≈ 48 µM) | 40 (≈ 46.8 µM) |  |  |  |  |  |  |  |  |  |  |  |  |  |  |  |  |  | 
O=C(O)c1ccc(C2C(Cl)C(=O)N2c2nc(-c3cc(Cl)cc4c3-c3ccc(Cl)cc3C4)cs2)cc1 (stereo not drawn) [6g, 4-(3-Chloro-1-(4-(2,7-dichloro-9H-fluoren-4-yl)thiazol-2-yl)-4-oxoazetidin-2-yl)benzoic acid] | 308 (≈ 568 µM) | 40 (≈ 73.8 µM) | > 500 | 94.5 | 90.1 | 86.9 | 73.5 | 68.9 | 63.1 | 18.4 | 14.4 | 73.9 | 42 | 37.4 | 35.7 | 30.6 | 96.7 | 93.9 | 91.2 | 82.9 | viability at 125 µg/mL [3]: 71.1%; viability at 250 µg/mL [3]: 65.5%; viability at 500 µg/mL [3]: 55.6%; melting point: 125 to 127 °C
O=C1CSC(c2cccs2)N1c1nc(-c2cc(Cl)cc3c2-c2ccc(Cl)cc2C3)cs1 (stereo not drawn) [5k, 3-(4-(2,7-Dichloro-9H-fluoren-4-yl)thiazol-2-yl)-2-(thiophen-2-yl)thiazolidin-4-one] | 613 (≈ 1220 µM) | 288 (≈ 574 µM) | 330 (≈ 658 µM) | 95.2 | 92.3 | 85.9 | 83.9 | 79.6 | 76.9 | 60.9 | 22.6 | 80.8 | 71.4 | 64.8 | 51.4 | 41.9 | 92.3 | 85.8 | 68.7 | 60.8 | viability at 125 µg/mL [3]: 56.7%; viability at 250 µg/mL [3]: 50.6%; viability at 500 µg/mL [3]: 43%; melting point: 165 to 167 °C
O=C1CSC(c2ccc([N+](=O)[O-])cc2)N1c1nc(-c2cc(Cl)cc3c2-c2ccc(Cl)cc2C3)cs1 (stereo not drawn) [5f, 3-(4-(2,7-Dichloro-9H-fluoren-4-yl)thiazol-2-yl)-2-(4-nitrophenyl)thiazolidin-4-one] | 567 (≈ 1050 µM) | > 500 | > 500 | 95 | 89.8 | 87 | 83.8 | 79.2 | 75.4 | 65.5 | 12.6 | 82.5 | 81.9 | 77 | 74.3 | 67.8 | 98.1 | 97.2 | 89 | 84.7 | viability at 125 µg/mL [3]: 81%; viability at 250 µg/mL [3]: 79.6%; viability at 500 µg/mL [3]: 77.5%; melting point: 90 to 92 °C
